# Target: T1, placental aromatase (Homo sapiens, UniProt P11511)
# T1 construct: Microsomal aromatase was obtained from human placenta; from tissue; host or cells: human placenta microsomes
# T1 sequence (P11511 1-503): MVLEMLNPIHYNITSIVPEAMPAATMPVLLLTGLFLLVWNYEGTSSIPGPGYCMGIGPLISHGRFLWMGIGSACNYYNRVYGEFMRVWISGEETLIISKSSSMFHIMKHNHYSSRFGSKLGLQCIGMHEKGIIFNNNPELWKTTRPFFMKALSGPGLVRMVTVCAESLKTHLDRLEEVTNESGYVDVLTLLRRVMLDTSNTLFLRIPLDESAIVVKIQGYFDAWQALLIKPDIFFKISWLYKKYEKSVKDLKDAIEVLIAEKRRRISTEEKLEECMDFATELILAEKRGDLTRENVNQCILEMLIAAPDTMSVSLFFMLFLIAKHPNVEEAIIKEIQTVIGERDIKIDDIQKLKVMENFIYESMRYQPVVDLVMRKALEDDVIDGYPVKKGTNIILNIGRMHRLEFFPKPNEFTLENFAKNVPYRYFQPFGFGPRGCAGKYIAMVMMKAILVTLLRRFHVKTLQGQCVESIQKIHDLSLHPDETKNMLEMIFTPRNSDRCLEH
# Test: Inhibition of placental aromatase activity (tritiated water release from [3H]androstenedione; modified Thompson and Siiteri assay)
# Type: biochemical
# Conditions: for aromatase inhibitory activity (in words): qualitative statement
# Method: Microsomal aromatase was obtained from human placenta. A reaction vessel was prepared containing microsomes (0.124 mg protein/ml), NADPH (0.625 mM), [^3 H]androstenedione (0.33 μM) and increasing concentrations of the potential inhibitor being tested in buffer (800 μl) (0.1M KH2 PO4, pH 7.5). The conversion of androstenedione to estrone was allowed to proceed at 37° C. for 30 min and stopped by addition of 200 μl of charcoal suspension (25 mg/ml) in the same buffer. After centrifugation, tritiated water contained in 100 μl of supernatant was counted. The amount of tritiated water is proportional to the amount of transformed [^3 H] androstenedione.
smiles,measurement,value
"C=CC[C@@H]1CC2=CC(=O)CC[C@]2(C)[C@H]2CC[C@]3(C)C(=O)CC[C@H]3[C@H]12 [EM 173, 7α-allyl-4-androsten-3,17-dione]",Ki,200 nM
same,aromatase inhibitory activity (in words),showed aromatase inhibitory activity
"C=CC[C@@H]1C[C@@H]2CC(=O)CC[C@]2(C)[C@H]2CC[C@]3(C)C(=O)CC[C@H]3[C@H]12 [EM 176, 7α-allyl-5β-androstan-3,17-dione]",Ki,900 nM
same,aromatase inhibitory activity (in words),showed aromatase inhibitory activity
"C=CC[C@@H]1C[C@H]2CC(=O)CC[C@]2(C)[C@H]2CC[C@]3(C)C(=O)CC[C@H]3[C@H]12 [EM 198, 7α-allyl-5α-androstan-3,17-dione]",Ki,600 nM
same,aromatase inhibitory activity (in words),showed aromatase inhibitory activity

# From US5227375A, “Aromatase inhibitors” (Endorecherche, Inc., priority 1990, dated 1993)
